These are literature values, as cited in patent US7935665B2, “Non-corrosive cleaning compositions for removing etch residues” (Fujifilm Electronic Materials U.S.A., Inc., priority 2002, dated 2011).

For the data set the following is noted: of the acid in the formulation.

Molecules are shown by their SMILES.

In the case of `O=C(O)CC(O)C(=O)O` (racemic) [DL-malic acid], the PKa2 is 5.1 and the pKa1 is 3.48. Turning to `O=C(O)[C@H](O)[C@@H](O)[C@H](O)[C@H](O)CO` [D-gluconic acid], the pKa1 is on record as 3.86.
